Data as given in US7390870B2, “Immune-enhancing peptides” (Posco, priority 2001, dated 2008).
No end group written: not given here.

Tests used:
Type in all cases: cell-based
human neutrophils = test: Superoxide generation by human neutrophils (cytochrome c reduction assay); conditions: FIG. 4B; 10 μM of each peptide
Experimental: (§1) For initial screening of the PS-SPCLs, the superoxide anion generation of each peptide pool was evaluated by measuring reduction of cytochrome c using a microtiter 96 well plate ELISA reader (Bio-Tekinstruments, EL312e, Winooski, Vt.) as described (20). The cytochrome c was purchased from Sigma (St. Louis, Mo.). The human monocytes (9×10^5 cells/100 □ of RPMI 1640 medium per well of a 96-well plate) were preincubated with 50 μM cytochrome c at 37° C. for 1 minute and then incubated with the indicated concentrations of peptide pools (final 0.5 nM per peptide sequence for the initial screening). The superoxide generation was measured as change in light absorption at 550 nm over 5 minutes at 1 minute intervals. From at least four independent experiments, peptides with active amino acids at each position were chosen. Superoxide generation by the identified peptides was measured by the same method. Spurious reduction of cytochrome c was ruled out by checking that the peptides-induced ones were superoxide dismutase-inhibitable in all experiments.
From the fact that HFYLPM, MFYLPM, and HFYLPm stimulate human monocytes, effects of the peptides on other leukocytes such as neutrophils were evaluated. […] The peak level of the [Ca^2+]i increase was recorded and superoxide generation was measured using cytochrome c reduction assay. […]

[1] = system: Jurkat human T cell leukemia cells; test: [Ca2+]i increase in Jurkat cells (fura-2); conditions: FIG. 4A; MFYLPM up to 30 μM
Experimental: The level of [Ca^2+]i was determined by Grynkiewicz's method using fura-2/AM (21). Briefly, prepared cells were incubated with 3 μM fura-2/AM at 37° C. for 50 minutes in a fresh serum-free RPMI 1640 medium under continuous stirring. 2×10^6 cells were aliquoted for each assay in Ca^2+-free Locke's solution (154 mM NaCl, 5.6 mM KCl1.2 mM MgCl2, 5 mM HEPES, pH 7.3, 10 mM glucose, and 0.2 mM EGTA). The fluorescence changes at the dual excitation wavelengths of 340 nm and 380 nm and the emission wavelength of 500 nm were measured, and the calibrated fluorescence ratio was translated into [Ca^2+]i.
From the fact that HFYLPM, MFYLPM, and HFYLPm stimulate human monocytes, effects of the peptides on other leukocytes such as neutrophils were evaluated. Prepared human primary monocytes, neutrophils, cultured HL60, Jurkat, U937, NIH3T3, 3Y1, 3T3L1, and PC12 cells were loaded with fura-2 and stimulated with effective concentrations of the three peptides (1 μM for monocyte and neutrophil; 10 μM for HL60 and Jurkat; 20 μM for U937, NIH3T3, 3Y1, 3T3L1, and PC12). The peak level of the [Ca^2+]i increase was recorded and superoxide generation was measured using cytochrome c reduction assay. The results are shown FIG. 4. The data of FIG. 4 are presented as means ±S.E. from at least three independent experiments.

human monocytes = test: Superoxide generation in human monocytes (cytochrome c reduction assay); set-up: activity in terms of superoxide generation among the identified peptides: dose or concentration left out as unconfirmed
Experimental: as §1
Based on the results of the initial screening of the peptide libraries of Example 4, a peptide pool containing twelve (2×1×1×1×2×3=12) individual hexapeptides were generated by reiterative synthesis. […]
The superoxide generated was measured using a cytochrome c reduction assay as described above. […]

Met-Phe-Tyr-Leu-Pro-Met-CONH2 (MFYLPM-NH2)
superoxide generation by neutrophils (human neutrophils): generate superoxides | intracellular calcium mobilization in Jurkat cells [1]: did not cause a similar intracellular calcium mobilization | activity in terms of superoxide generation among the identified peptides (human monocytes; FIG. 2A, monocytes stimulated): most active | concentration of maximal activity, superoxide generation (human monocytes; FIG. 2B, concentration dependency): 3.3 µM
